Entries after “also recorded” stand apart in the source; their conditions may differ.
How the values were obtained:
eGFP-4T1 cells = assay: Mitophagy induction / mitochondrial EV fluorescent labelling (CCCP perturbation); type: cell-based, murine
Excerpt: To further verify that PINK1-associated EVs contained mitochondrial components via a orthogonal methods, we performed a functional perturbation in vitro to induce the cellular release of mitophagy-associated EVs. We treated sub-confluent eGFP-4T1 cells with a mitochondrial depolarization protonophore carbonyl cyanide m-chlorophenyl hydrazone (CCCP) (Villa et al., 2017) and added a permanent fluorescent label for active mitochondrial membranes with MitoTracker Deep Red (MTDR) (Chazotte, 2011). After 48 h, the cells reached 70% confluency and were harvested by differential ultracentrifugation.
Two 4T1-eGFP cell cultures were plated at 10^6 cells/ml. Untreated cells were left to grow for 5 days. Treated cells were stimulated with 10 nM of carbonyl cyanide 3-chlorophenylhydrazone (CCCP) (Sigma) and left to grow for 5 days. The supernatants were collected and EVs fractions were isolated by differential ultracentrifugation. The resulting 100K EVs were probed for anti-ARIH1 (Santa Cruz) by Western blot.
Two 4T1-eGFP-Puro cell cultures were plated at 10^6 cells/ml. Untreated cells were left to grow for 48 h. Treated cells were stimulated with 10 nM and 10 μM of CCCP and left to grow for 48 h. At 48 h, 50 nM of MitoTracker Deep Red (MTDR) (Thermo Fisher) was added to the media and left to sit overnight in the cell incubator. The supernatants were collected and EVs were isolated by differential ultracentrifugation. EVs subpopulations were plated at 30 μl and scanned for peak emission fluorescent intensity fluorescence at […] (absorbance/emission) for GFP and 635/675 nm (absorbance/emission) for MTDR on a Tecan safire2 plate reader.

[1] = tested on: Ovarian Cancer tumor cells; assay: EVs released by ovarian cancer cells undergoing cisplatin treatment (Western blot, RPPA); type: cell-based
Method: A) Ovarian Cancer tumor cells are treated with pulses of cisplatin, a common ovarian cancer therapeutic. EVs released by the cancer cells undergoing cisplatin treatment are isolated by differential ultracentrifugation and analyzed via Western Blot, mass spectrometry, and reverse phase protein array in order to determine potential pathways and markers that are indicative of cancer resistance. […] Additionally, the subpopulations are present with typical EV related tetraspanin markers.
In an embodiment, RPPA assays previously used for tissue lysates can be adapted for use with EV subpopulations.

irradiated tumor = conditions: mice; cited from earlier work

In the case of `N#CC(C#N)=NNc1cccc(Cl)c1` [CCCP, carbonyl cyanide m-chlorophenyl hydrazone], the “MitoTracker Deep Red (MTDR) in 100K EVs” value (eGFP-4T1 cells; MTDR fluorescence normalized to GFP by EV subpopulation) is reported as “increased release of 100K EVs containing active mitochondrial molecules; also recorded: increasing levels”, the “ARIH1 presence in the 100K EVs” value (eGFP-4T1 cells; compared to no treatment, Western blot) is reported as “induced ARIH1 presence” and the “release of CD81+/PINK1+ 100K EVs” value (eGFP-4T1 cells; increasing CCCP up to 10 μM (cytotoxic level), 48 h, Western blot) is reported as “release of increased Parkin-independent mitophagy-containing 100K EVs; also recorded: increased release of CD81+/PINK1+ 100K EVs in a dose dependent manner; also recorded: increased export of PINK1 and MitoTracker”.
For `N.N.[Cl][Pt][Cl]` [cisplatin], the “RPPA ratio pre to post treatment, EGFR (pY1068) and Bax pathways” value ([1]; 2K EV population) was “greatly increased”, the “RPPA ratio pre to post treatment, Akt” value ([1]; 10K EV population) was 11 fold and the “RPPA pathways altered after treatment” value ([1]; 100K EV population) was “few pathways were altered”. The “LC3-I/II (autophagy) and PD-L1 in EV subpopulations, Western blot” value ([1]; post-treatment EVs compared to pre-treatment) was “upregulating”.
In the case of `CCN(CC)CCCC(C)Nc1ccnc2cc(Cl)ccc12` (centres unmarked) [chloroquine], the “response to radiation therapy” value (irradiated tumor) is given as “improves response”.

Source: patent publication US20240156931A1, “COLLECTION AND USES OF TISSUE RESIDENT INTERSTITIAL EXTRACELLULAR VESICLES” (priority 2022, published 2024)
